The nature of this data set: in vitro. Conditions: human, hela cells, % viability.

One may read the viability as a read-out of living cells in per cent, often relative to untreated cells. Take `COc1ccc(C(=O)N2CCC3(CCN(C(=O)c4ccc5[nH]c(=O)[nH]c5c4)C3)C2)cc1OC` (stereo not shown) [CBK131793]: the viability at 28.5 h, 10 µM was 100%.

As to `O=C(N[C@@H](Cn1cc(F)c(=O)[nH]c1=O)C(=O)O)C1CCCC1` [CBK289660], the viability at 28.5 h, 10 µM amounted to 109%.

For `Fc1ccc(N2CCN(c3ncnc4[nH]cnc34)CC2)cc1` [CBK287387], the viability at 28.5 h, 10 µM is 89.8%.

`O=c1[nH]c(=O)n([C@@H]2O[C@H](CO)[C@H](O)C2O)cc1I` (stereo partly shown) [CBK201304]: the viability at 28.5 h, 10 µM is 94.6%.

`CC(O)c1cccc(NC(=O)CCC(=O)O)c1` (stereo not shown) [CBK264691]: the viability at 28.5 h, 10 µM turned out to be 94.1%.

Take `CC(NC(=O)Cc1cccs1)c1nc2cccnc2n1C(C)C` (stereo not shown) [CBK283828]: the viability at 28.5 h, 10 µM turned out to be 81%.

Take `COCCNC(=O)C1CCCN(c2nc3c(-c4ccccc4)csc3c(=O)[nH]2)C1` (stereo not shown) [CBK215497]: the viability at 28.5 h, 10 µM came out at 114%.

`COc1ccc2c(c1)C(O)C(NCc1ccccc1)C2` (stereo not shown) [CBK015469C]: the viability at 28.5 h, 10 µM came out at 104%.

Consider `COc1ccc([C@@]23CC[C@@H](NC(=O)c4ccc(F)c(F)c4)C[C@@H]2CN(C)C3)cc1OC` [CBK083504T], for which the viability at 28.5 h, 10 µM is 90.2%.

As for `CN1CCOc2cc(S(=O)(=O)Nc3cccnc3N3CCOCC3)ccc21` [CBK062299], the viability at 28.5 h, 10 µM was found to be 108%.

Take `CN(Cc1ccc(-c2ccc(S(C)(=O)=O)cc2)cn1)C1CCN(C(=O)CC(C)(C)O)CC1` [CBK165684T]: the viability at 28.5 h, 10 µM turned out to be 93.1%.

For the compound `CN(CCCC(=O)O)c1nc(-c2ccc(Br)cc2)cs1` [CBK299834], the viability at 28.5 h, 10 µM is 88.6%.

In the case of `Cc1cc2c(cc1S(=O)(=O)NCCc1ccccc1)NC(=O)CO2` [CBK270196], the viability at 28.5 h, 10 µM turned out to be 102%.

Turning to `CC(NC(=O)C1(Cn2ccnc2)CC1)c1ccccc1-n1cccn1` (stereo not shown) [CBK307006], the viability at 28.5 h, 10 µM is 94.3%.

On to `COc1ccc(CCNC(=O)CN2CCCC2c2cnn(C)c2)cc1` (stereo not shown) [CBK305371], for which the viability at 28.5 h, 10 µM was 84.2%.

Turning to `O=C(NC(Cc1cnc[nH]1)C(=O)O)c1ccccc1` (stereo not shown) [CBK059018], the viability at 28.5 h, 10 µM stood at 102%.

For `O=C1c2ccc(-c3ccc4c(c3)C(=O)N(Cc3ccco3)C4=O)cc2C(=O)N1Cc1ccco1` [CBK266578], the viability at 28.5 h, 10 µM was found to be 93.3%.

In the case of `CC(C)(C)c1cc(N2C(=O)C(O)=C(C(=O)c3ccc(Cl)cc3)C2c2cccc([N+](=O)[O-])c2)no1` (stereo not shown) [CBK263470], the viability at 28.5 h, 10 µM amounted to 92.8%.

Take `CC(=O)Nc1ccc(N2C(=O)CC(NCCCN3CCOCC3)C2=O)cc1` (stereo not shown) [CBK265236]: the viability at 28.5 h, 10 µM was 115%.

As to `COc1ccccc1CNCC1CCN(C(=O)OC(C)(C)C)CC1` [CBK056710], the viability at 28.5 h, 10 µM is 96.4%.

Consider `O=C(C1=C(O)C(=O)N(CCN2CCOCC2)C1c1cccnc1)c1ccco1` (stereo not shown) [CBK264570], for which the viability at 28.5 h, 10 µM worked out at 97.4%.

Turning to `O=C(c1cnc2ccccc2n1)N1CCN(CCc2ccccc2)CC1` [CBK200214], the viability at 28.5 h, 10 µM amounted to 91%.

For the compound `COCCc1noc(CC2CCN(c3ccc(C#N)nc3)CC2)n1` [CBK304094], the viability at 28.5 h, 10 µM is 89.9%.

Regarding `COC(=O)c1ccc(C)c(NS(=O)(=O)c2cc(Cl)ccc2Cl)c1` [CBK077971], the viability at 28.5 h, 10 µM was found to be 90.9%.

In the case of `CCC(Sc1nnc2c(n1)[nH]c1ccccc12)C(=O)Nc1sc2c(c1C#N)CCCC2` (stereo not shown) [CBK263917], the viability at 28.5 h, 10 µM is 80.3%.

Turning to `CCCC/C=C/c1cnc2[nH]c(=O)n(CC(C)C)c2n1` [CBK064225], the viability at 28.5 h, 10 µM amounted to 96.4%.

`CCOc1ccc2c(c1)cc(C(=O)N(C)CC(F)(F)F)n2C` [CBK281509]: the viability at 28.5 h, 10 µM was determined as 80.7%.

As to `COc1ccccc1C/C(N)=N/OC(=O)COc1ccc2ccccc2c1` [CBK263730], the viability at 28.5 h, 10 µM came out at 89.7%.

As for `O=C(O)[C@H]1Nc2ccc(Br)cc2[C@H]2[C@H](O)[C@H](O)C[C@H]21` [CBK303242], the viability at 28.5 h, 10 µM is 115%.

In the case of `Nc1ncc(-c2ccc(Cl)cc2)nc1-c1ccc(CCC(=O)O)cc1` [CBK064063], the viability at 28.5 h, 10 µM amounted to 92.9%.

In the case of `Cc1nc2cc(OCc3ccc(Cn4ccn(C(=O)CCC5CCCC5)c4=O)cc3)ccc2s1` [CBK106641], the viability at 28.5 h, 10 µM is 115%.

`CCSc1nnc2c3c(sc2c1N)CC(C)(C)OC3` [CBK020374]: the viability at 28.5 h, 10 µM amounted to 95.4%.

For the compound `CC(=O)C1=C(O)C(=O)N(CC(=O)O)C1c1ccc(Br)cc1` (stereo not shown) [CBK286712], the viability at 28.5 h, 10 µM worked out at 89.9%.

Take `O=C(COc1ccc(C(=O)c2ccc(F)cc2)cc1)c1ccc2c(c1)OCCO2` [CBK297536]: the viability at 28.5 h, 10 µM was 111%.

`O=C(Nc1cccnc1)c1cc2cc(OC(F)(F)F)ccc2[nH]1` [CBK107313]: the viability at 28.5 h, 10 µM is 95.1%.

For the compound `O=C(NCCN1CCN(Cc2ccccc2Cl)CC1)Nc1ccccc1` [CBK268039], the viability at 28.5 h, 10 µM stood at 93.4%.

As for `Cc1nc2c(C(=O)NCCOCCO)cnn2c(C)c1Cc1ccc(F)c(Cl)c1` [CBK167457], the viability at 28.5 h, 10 µM is 96.3%.

In the case of `CC(=O)NCc1cccc(-c2cc(OCC3COc4ccccc4O3)cnc2C)c1` (stereo not shown) [CBK161723A], the viability at 28.5 h, 10 µM was 112%.

As to `NC1CCN(C(=O)Cn2c3ccccc3c(=O)c3ccccc32)C1` (stereo not shown) [CBK304300C], the viability at 28.5 h, 10 µM turned out to be 94.3%.

In the case of `CC(C(=O)N1CCC(c2ccncc2)CC1)c1ccccc1` (stereo not shown) [CBK285484], the viability at 28.5 h, 10 µM amounted to 99.1%.

`COCCC(=O)Nc1ccc(N2CCNCC2)nc1` [CBK004749T]: the viability at 28.5 h, 10 µM is 92.2%.

Turning to `O=C(O)CCCC(=O)Nc1ccc(O)cc1` [CBK263567], the viability at 28.5 h, 10 µM was determined as 90.9%.

Regarding `COc1ccc2c(c1)C1(CC(=O)N(CCc3scnc3C)C1=O)C(=O)N2C` (stereo not shown) [CBK075213], the viability at 28.5 h, 10 µM was 91.6%.

As to `CCn1cc(Cl)c(C(=O)NC2CCN(c3cnccn3)CC2)n1` [CBK306922], the viability at 28.5 h, 10 µM stood at 95.5%.

Turning to `Cn1ccnc1C(NC(=O)c1ccccn1)c1ccc(F)c(F)c1` (stereo not shown) [CBK283783], the viability at 28.5 h, 10 µM was 91.6%.

As for `Cc1cccc(C2(O)CCN(C(=O)c3cc(C(C)C)nn3C)CC2)c1` [CBK282163], the viability at 28.5 h, 10 µM stood at 87.5%.

As to `O=C(CSCc1c(Cl)cccc1Cl)Nc1ccc(S(=O)(=O)N2CCOCC2)cc1` [CBK266276], the viability at 28.5 h, 10 µM was 109%.

For the compound `COc1ccc2cc(/C=C(\C#N)c3nc(-c4cc5c(ccc6ccccc65)oc4=O)cs3)c(Cl)nc2c1` [CBK261636], the viability at 28.5 h, 10 µM was 94%.

As to `COc1ccc(CC(=O)NNC(=O)Nc2ccc(Cl)c(Cl)c2)cc1` [CBK262652], the viability at 28.5 h, 10 µM came out at 92.6%.

For `Cc1cc(/C=C2/NC(=O)NC2=O)c(C)n1-c1ccc(S(N)(=O)=O)cc1` [CBK264747], the viability at 28.5 h, 10 µM is 106%.

In the case of `NCCCCCCNc1ncnc2c1ncn2[C@H]1C[C@@H](O)[C@@H](CO)O1` [CBK201260], the viability at 28.5 h, 10 µM was 105%.

On to `CCN(CC)C(=O)c1ccsc1NS(=O)(=O)c1cc(Br)ccc1OC` [CBK042327], for which the viability at 28.5 h, 10 µM worked out at 103%.

For the compound `NC(=O)c1c[nH]c2ccccc12` [CBK027556], the viability at 28.5 h, 10 µM came out at 80.7%.

`NC(=O)c1cccc(COc2ccccc2C(=O)Nc2ccc(-c3ccsc3)cc2C(=O)O)c1` [CBK001718]: the viability at 28.5 h, 10 µM turned out to be 82.6%.

With `CC(C)N1CCCC2(CCN(C(=O)Cc3c[nH]c(=O)n(C)c3=O)C2)C1=O` (stereo not shown) [CBK307115], the viability at 28.5 h, 10 µM stood at 87.8%.

For the compound `COCCNc1nc2c(c(N3CCCC(C#N)C3)n1)CCNCC2` (stereo not shown) [CBK307412], the viability at 28.5 h, 10 µM worked out at 87.2%.

Turning to `COc1ccc(S(=O)(=O)N2CCOCC2)cc1C(=O)Nc1ccc2c(c1)OCO2` [CBK265548], the viability at 28.5 h, 10 µM worked out at 102%.

For the compound `CN(C)C(=O)c1cc(-c2ccco2)cnc1NS(C)(=O)=O` [CBK076490], the viability at 28.5 h, 10 µM was found to be 116%.

Regarding `O=C(Nc1ccncc1)c1c(O)n(Cc2ccccc2)c2ccccc2c1=O` [CBK291222], the viability at 28.5 h, 10 µM is 92%.

Consider `O=C(NC1CCCC1)c1ccc(=O)[nH]c1` [CBK058093], for which the viability at 28.5 h, 10 µM stood at 104%.

In the case of `CCCC(=O)Nc1ccccc1NC(=O)c1cccc([N+](=O)[O-])c1C` [CBK267398], the viability at 28.5 h, 10 µM amounted to 92.1%.

In the case of `Cc1ccc(Cl)c(NC(=O)NCCN2CCN(c3ccccc3[N+](=O)[O-])CC2)c1` [CBK267293], the viability at 28.5 h, 10 µM was 94.5%.

Regarding `CC(C)(C)c1ccc(S(=O)(=O)N2CCCC[C@H]2COC(=O)c2nccnc2C(=O)O)cc1` [CBK200065], the viability at 28.5 h, 10 µM is 91.6%.

As for `CCOc1ccc(NC(=O)Nc2ccc(CC(=O)O)cc2)cc1` [CBK266945], the viability at 28.5 h, 10 µM came out at 112%.

As for `CCOC(=O)CC1C(=O)NCCN1Cc1cccc(C)n1` (stereo not shown) [CBK269965], the viability at 28.5 h, 10 µM was determined as 101%.

On to `O=C(c1cc(F)c(F)cc1F)N1CCC2(CCCN(Cc3cc(=O)[nH]c(=O)[nH]3)C2)C1` (stereo not shown) [CBK132010], for which the viability at 28.5 h, 10 µM was 101%.

As to `c1ccc(C(Oc2nccnc2-c2cccs2)c2ccccc2)cc1` [CBK107061], the viability at 28.5 h, 10 µM came out at 112%.

For `CCCC/C=C/c1nccnc1NCCCO` [CBK038006], the viability at 28.5 h, 10 µM is 102%.

As for `Cc1cc(NC(=O)CN(C)Cc2cnn(-c3ccccc3)c2)on1` [CBK305622], the viability at 28.5 h, 10 µM was found to be 92.5%.

Consider `NCC(=O)Nc1ccc(Cl)c(Cl)c1` [CBK046317], for which the viability at 28.5 h, 10 µM was determined as 94.3%.

Consider `O=C(Cn1nnc2ccccc21)NC(c1ccccc1)c1ccccc1` [CBK297488], for which the viability at 28.5 h, 10 µM was 110%.

With `CC(C)NC(=O)[C@H]1O[C@H](CCN2CCN(c3ccccc3)CC2)CC[C@@H]1O` [CBK288719], the viability at 28.5 h, 10 µM is 123%.

As to `COc1ccccc1-c1nccnc1N[C@H]1CCN(Cc2ccccc2)C1` [CBK037626], the viability at 28.5 h, 10 µM was determined as 94.4%.

As to `COc1ccc(C2(C(=O)NCc3cnc(C)cn3)CC2)cc1` [CBK149830], the viability at 28.5 h, 10 µM amounted to 98.5%.

`O=S(=O)(NCCn1cccc1)c1ccc2ccccc2c1` [CBK270211]: the viability at 28.5 h, 10 µM came to 90.4%.

On to `CC(C)Nc1cc(Cl)ncn1` [CBK081511], for which the viability at 28.5 h, 10 µM came out at 108%.

Take `O=C(NCCn1nc2c(cc1=O)CCCCC2)c1ccccc1` [CBK283278]: the viability at 28.5 h, 10 µM is 85.7%.

As to `c1ccc(CCN2CCCN(c3ccnc(OCCN4CCOCC4)n3)CC2)nc1` [CBK083813], the viability at 28.5 h, 10 µM came to 94.9%.

As to `Cc1csc2ncc(C(=O)NCc3ccccc3)c(=O)n12` [CBK287290], the viability at 28.5 h, 10 µM came out at 89.3%.

Values taken from PMC12040169 (PLOS Biology, 2025).
